Converted amounts (≈) assume the structure as drawn.
Tests used:
[1] = tested on: Geotricum candidum (RCMB 05007); test: Agar well diffusion, Geotricum candidum; assay type: cell-based; details: Reference Drug, 30 μg/mL; well diameter 6 mm; 37° C., 18 to 24 h
Protocol: (§1) Antimicrobial tests were carried out by agar well diffusion according to the National Committee for Clinical Laboratory Standards (NCCLS) criteria.
(§2) Bacterial and fungal suspensions were prepared at 0.5 McFarland standard turbulence in a volume of 100 μL and were cultivated on Mueller-Hinton agar and Sabouraud dextrose media punched with 6-mm diameter wells for the bacteria and fungi, respectively. Then, 100 μl of 10% tested sample was added to the wells, while 10% DMSO was used as the negative control. Ampicillin, gentamicin, and amphotericin B (30 μg/mL) were used as standard agents against the Gram-positive bacteria, Gram-negative bacteria, and fungi, respectively. After incubation of the plates at 37° C. for 18 to 24 h, the antimicrobial activity was evaluated by measuring the diameter of the inhibition zones. Each test was performed in triplicate and the average of the results was calculated. The extraction solvents were used as negative controls (NCCLS, 2002; 2004).

[2] = tested on: Absidia corymbifera (RCMB 02564); test: Agar well diffusion, Absidia corymbifera; assay type: cell-based; details: Reference Drug, 30 μg/mL; well diameter 6 mm; 37° C., 18 to 24 h
Protocol: as §1, §2

Candida albicans (RCMB) = test: Agar well diffusion, Candida albicans; assay type: cell-based; details: Reference Drug, 30 μg/mL; well diameter 6 mm; 37° C., 18 to 24 h
Protocol: as §1, §2

[3] = tested on: Staphylococcus epidermidis (RCMB 010024); test: Agar well diffusion, Staphylococcus epidermidis; assay type: cell-based; details: Reference Drug, 30 μg/mL; well diameter 6 mm; 37° C., 18 to 24 h; in mm
Protocol: (§3) Antimicrobial tests were carried out by agar well diffusion according to the National Committee for Clinical Laboratory Standards (NCCLS) criteria. […] Then, 100 μl of 10% tested sample was added to the wells, while 10% DMSO was used as the negative control. […] Each test was performed in triplicate and the average of the results was calculated. The extraction solvents were used as negative controls (NCCLS, 2002; 2004).

[4] = tested on: Staphylococcus aureus (RCMB 010027); test: Agar well diffusion, Staphylococcus aureus; assay type: cell-based; details: Reference Drug, 30 μg/mL; well diameter 6 mm; 37° C., 18 to 24 h; in mm
Protocol: as §3

[5] = tested on: Streptococcus pyogenes (RCMB 010015); test: Agar well diffusion, Streptococcus pyogenes; assay type: cell-based; details: Reference Drug, 30 μg/mL; well diameter 6 mm; 37° C., 18 to 24 h; in mm
Protocol: as §3

A549 cells = details: reported by Al-Massarani et al., Molecules 2017; cited from earlier work
[6] = tested on: MDA (breast cancer cells); details: reported by Al-Massarani et al., Molecules 2017; cited from earlier work
Hela cells = details: reported by Al-Massarani et al., Molecules 2017; cited from earlier work
[7] = tested on: Salmonella enteritidis (RCMB 010084); test: Agar well diffusion, Salmonella enteritidis; assay type: cell-based; details: Reference Drug, 30 μg/mL; well diameter 6 mm; 37° C., 18 to 24 h; in mm
Protocol: as §3

[8] = tested on: Proteous vulgaris (RCMB 010085); test: Agar well diffusion, Proteous vulgaris; assay type: cell-based; details: Reference Drug, 30 μg/mL; well diameter 6 mm; 37° C., 18 to 24 h; in mm
Protocol: as §3

[9] = tested on: Klebsiella pneumoniae (RCMB 0010093); test: Agar well diffusion, Klebsiella pneumoniae; assay type: cell-based; details: Reference Drug, 30 μg/mL; well diameter 6 mm; 37° C., 18 to 24 h; in mm
Protocol: as §3

Question: Which “Zone of Inhibition” value [1] does the source give for C[C@@H]1[C@H](O)[C@@H](C)/C=C/C=C/C=C/C=C/C=C/C=C/C=C/[C@H](O[C@@H]2O[C@H](C)[C@@H](O)[C@H](N)[C@@H]2O)C[C@@H]2O[C@](O)(C[C@@H](O)C[C@@H](O)[C@H](O)CC[C@@H](O)C[C@@H](O)CC(=O)O[C@H]1C)C[C@H](O)[C@H]2C(=O)O [Amphotericin B] here?
Answer: The value was 27.0.

Question: What about the “Zone of Inhibition” value [2] of the same compound?
Answer: Its value is 23.0.

Question: What about the “Zone of Inhibition” value (Candida albicans (RCMB)) of the same compound?
Answer: The value was 25.7.

Question: With CC1(C)S[C@@H]2[C@H](NC(=O)[C@H](N)c3ccccc3)C(=O)N2[C@H]1C(=O)O [Ampicillin] as the compound, how does the “Zone of Inhibition” value [3] read?
Answer: The value was 25.0.

Question: What about the “Zone of Inhibition” value [4] of the same compound?
Answer: Its value is 27.3.

Question: What about the “Zone of Inhibition” value [5] of the same compound?
Answer: The value was 26.3.

Question: Which IC50 (A549 cells) does the source give for C[C@H]1[C@H](C)CC[C@]2(C(=O)O)CC[C@]3(C)C(=CC[C@@H]4[C@@]5(C)CC[C@H](O)C(C)(C)[C@@H]5CC[C@]43C)[C@H]12 [ursolic acid] here?
Answer: Its IC50 is 65.2 µg/mL (≈ 143 µM).

Question: What about the IC50 [6] of the same compound?
Answer: Its IC50 is 47.76 µg/mL (≈ 105 µM).

Question: What about the IC50 (Hela cells) of the same compound?
Answer: Its IC50 is 50.2 µg/mL (≈ 110 µM).

Question: Which “Zone of Inhibition” value [7] does the source give for Gentamycin here?
Answer: The value was 25.2.

Question: What about the “Zone of Inhibition” value [8] of the same compound?
Answer: Its value is 23.4.

Question: What about the “Zone of Inhibition” value [9] of the same compound?
Answer: The value was 26.4.

Source: patent US10442833B1 (KING SAUD UNIVERSITY, priority 2018, dated 2019)
